Measurements published in patent publication US20090239841A1, “Diaryl Ureas as CB1 Antagonists” (priority 2004, published 2009).

These compounds were tested against T1, hCB1 (Homo sapiens, UniProt P21554) (assay: Agonist-induced GTP binding (GTPγ35S) assay at CB1, Example 8). Conditions: Table I; IC50 at CB1, GTP binding with 1 nM CP55,940; read-out: IC50.
T1 construct: made in house; host or cells: Sf9 insect cells (baculovirus), P2 membranes
Type: biochemical
Text: As noted above, compounds provided herein are CB1 antagonists. Certain such compounds are non-competitive CB1 antagonists. In addition, or alternatively, certain compounds provided herein display CB1 specificity. CB1 antagonist activity may be confirmed using an agonist-induced GTP binding assay, such as the assay described in Example 8. Such assays employ a CB1-containing cell membrane preparation (e.g., a preparation of membranes of insect cells that recombinantly express CB1) to determine the effect of a test compound on CB1 agonist-induced GTP binding to CB1. Briefly, a first cell membrane preparation comprising CB1 is contacted with: (i) labeled GTP; (ii) a CB1 agonist; and (iii) a test compound to yield a test membrane preparation. Simultaneously, or in either order, a second cell membrane preparation comprising CB1 is contacted with: (i) labeled GTP; and (ii) a CB1 agonist to yield a control membrane preparation. The labeled GTP is preferably GTPγ^35S; a representative CB1 agonist is CP55,940. Such contact is performed under conditions that are suitable for GTP binding to CB1, such as the conditions described in Example 8. The concentrations of labeled GTP and CB1 agonist used are generally concentrations that are sufficient to result in a detectable increase in the amount of labeled GTP bound to the membrane preparation in the presence of CB1 agonist. Such concentrations may be determined by routine experimentation; representative suitable concentrations are provided in Example 8. Generally, a range of test compound concentrations is used (e.g., ranging from 10^−10M to 10^−5M).
After sufficient contact (e.g., incubation) to allow GTP binding to the membrane preparations, a signal that corresponds to (represents) the amount of bound, labeled GTP is detected (typically, unbound labeled GTP is first removed via a washing step). In other words, simultaneously or in either order: (i) a test signal that represents an amount of bound, labeled GTP in the test membrane preparation is detected; and (ii) a control signal that represents an amount of bound, labeled GTP in the control membrane preparation is detected. The nature of the signal detected is determined by the type of label used. For example, if the GTP is radioactively labeled, the signal detected is radioactive decay (e.g., via liquid scintillation spectrometry). The CB1 antagonist activity of the test compound is then determined by comparing the test signal with the control signal.
This assay can also be used to detect partial agonism mediated by antagonist compounds. A compound being analyzed in this assay is referred to herein as a “test compound.” Agonist-stimulated GTP binding activity is measured as follows: Four independent baculoviral stocks (one directing the expression of hCB1 and three directing the expression of each of the three subunits of a heterotrimeric G-protein) are used to infect a culture of Sf9 cells as described in Example 5.
Agonist-stimulated GTP binding on purified membranes (as described in Example 6) is initially assessed using the cannabinoid agonist CP55,940 to ascertain that the receptor/G-protein-alpha-beta-gamma combination(s) yield a functional response as measured by GTP binding.
P2 membranes are resuspended by Dounce homogenization (tight pestle) in GTP binding assay buffer (50 mM Tris pH 7.4, 120 mM NaCl, 5 mM MgCl2, 2 mM EGTA, 0.1% BSA, 0.1 mM bacitracin, 10 KIU/mL aprotinin, 5 μM GDP) and added to reaction tubes at a concentration of 10 μg protein/reaction tube. After adding increasing doses of the agonist CP55,940 at concentrations ranging from 10^−12 M to 10^−6 M, reactions are initiated by the addition of […] GTPγ^35S. In competition experiments, non-radiolabeled test compounds are added to separate assays at concentrations ranging from 10^−10 M to 10^−5 M along with 1 nM CP55,940 to yield a final volume of 0.25 mL. […]

T1 sequence (P21554 whole entry): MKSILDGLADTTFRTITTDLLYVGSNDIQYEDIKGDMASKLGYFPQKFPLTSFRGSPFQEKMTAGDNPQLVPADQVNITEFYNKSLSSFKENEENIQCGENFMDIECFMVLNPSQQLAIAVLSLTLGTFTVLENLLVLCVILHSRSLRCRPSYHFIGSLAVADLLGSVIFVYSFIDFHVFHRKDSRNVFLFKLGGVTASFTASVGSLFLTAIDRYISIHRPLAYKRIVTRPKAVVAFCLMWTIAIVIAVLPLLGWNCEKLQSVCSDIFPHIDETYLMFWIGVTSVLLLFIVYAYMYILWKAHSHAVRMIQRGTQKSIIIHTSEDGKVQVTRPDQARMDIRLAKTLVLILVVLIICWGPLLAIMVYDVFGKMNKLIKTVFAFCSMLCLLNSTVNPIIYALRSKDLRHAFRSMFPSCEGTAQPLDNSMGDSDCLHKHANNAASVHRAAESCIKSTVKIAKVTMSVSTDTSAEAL

Row | IC50 [nM] | SMILES
1 | < 2000 | O=C(Nc1ccc(OC(F)F)cc1)Nc1ccc(OC(F)F)cc1 [Compound 4, N,N′-bis[4-(difluoromethoxy)phenyl]urea]
2 | < 2000 | CCc1ccc(NC(=O)Nc2ccc(OC(F)F)cc2)cc1 [Compound 5, N-[4-(difluoromethoxy)phenyl]-N′-(4-ethylphenyl)urea]
3 | < 2000 | COc1cc(NC(=O)Nc2ccc(OC(F)F)cc2)ccc1OC(F)F [Compound 6, N-[4-(difluoromethoxy)-3-methoxyphenyl]-N′-[4-(difluoromethoxy)phenyl]urea]
4 | < 2000 | N#Cc1cccc(NC(=O)Nc2ccc(OC(F)F)cc2)c1 [Compound 8, N-(3-cyanophenyl)-N′-[4-(difluoromethoxy)phenyl]urea]
5 | < 2000 | CCOc1cccc(NC(=O)Nc2ccc(OC(F)F)cc2)c1 [Compound 9, N-[4-(difluoromethoxy)phenyl]-N′-(3-ethoxyphenyl)urea]
6 | < 2000 | Cc1nccc(-c2cccc(NC(=O)Nc3ccc(OC(F)F)cc3)c2)n1 [Compound 10, N-[4-(difluoromethoxy)phenyl]-N′-[3-(2-methylpyrimidin-4-yl)phenyl]urea]
7 | < 2000 | CCc1cccc(NC(=O)Nc2ccc(OC(F)F)cc2)c1 [Compound 11, N-[4-(difluoromethoxy)phenyl]-N′-(3-ethylphenyl)urea]
8 | < 2000 | CC(=O)c1cccc(NC(=O)Nc2ccc(OC(F)F)cc2)c1 [Compound 12, N-(3-acetylphenyl)-N′-[4-(difluoromethoxy)phenyl]urea]
9 | < 2000 | O=C(Nc1ccc(OC(F)F)cc1)Nc1cccc(OCCO)c1 [Compound 14, N-[4-(difluoromethoxy)phenyl]-N′-[3-(2-hydroxyethoxy)phenyl]urea]
10 | < 2000 | O=C(Nc1ccc(OC(F)F)cc1)Nc1cccc(Cl)c1 [Compound 15, N-(3-chlorophenyl)-N′-[4-(difluoromethoxy)phenyl]urea]
11 | < 2000 | O=C(Nc1ccc(OC(F)F)cc1)Nc1cccc(F)c1 [Compound 16, N-[4-(difluoromethoxy)phenyl]-N′-(3-fluorophenyl)urea]
12 | < 2000 | O=C(Nc1ccc(OC(F)F)cc1)Nc1cccc(O)c1 [Compound 17, N-[4-(difluoromethoxy)phenyl]-N′-(3-hydroxyphenyl)urea]
13 | < 2000 | Cc1cccc(NC(=O)Nc2ccc(OC(F)F)cc2)c1 [Compound 18, N-[4-(difluoromethoxy)phenyl]-N′-(3-methylphenyl)urea]
14 | < 2000 | CCCc1ccc(NC(=O)Nc2ccc(CC)cc2)cc1 [Compound 20, N-(4-ethylphenyl)-N′-(4-propylphenyl)urea]
15 | < 2000 | CCc1ccc(NC(=O)Nc2ccc(CC)cc2)cc1 [Compound 21, N,N′-bis(4-ethylphenyl)urea]
16 | < 2000 | CCc1ccc(NC(=O)Nc2ccc(C(C)=O)cc2)cc1 [Compound 22, N-(4-acetylphenyl)-N′-(4-ethylphenyl)urea]
17 | < 2000 | CCc1ccc(NC(=O)Nc2cccc(OC(C)C)c2)cc1 [Compound 23, N-(4-ethylphenyl)-N′-(3-isopropoxyphenyl)urea]
18 | < 2000 | CCCOc1ccc(NC(=O)Nc2ccc(CC)cc2)cc1 [Compound 24, N-(4-ethylphenyl)-N′-(4-propoxyphenyl)urea]
19 | < 2000 | CCc1ccc(NC(=O)Nc2ccc(Cl)cc2)cc1 [Compound 25, N-(4-chlorophenyl)-N′-(4-ethylphenyl)urea]
20 | < 2000 | CCc1ccc(NC(=O)Nc2ccc(C#N)cc2)cc1 [Compound 27, N-(4-cyanophenyl)-N′-(4-ethylphenyl)urea]
21 | < 2000 | CCc1ccc(NC(=O)Nc2ccc(CO)cc2)cc1 [Compound 28, N-(4-ethylphenyl)-N′-[4-(hydroxymethyl)phenyl]urea]
22 | < 2000 | CCc1ccc(NC(=O)Nc2ccc(O)cc2)cc1 [Compound 29, N-(4-ethylphenyl)-N′-(4-hydroxyphenyl)urea]

Row | IC50 [nM] | SMILES
23 | < 2000 | CCc1ccc(NC(=O)Nc2ccccc2)cc1 [Compound 35, N-(4-ethylphenyl)-N′-phenylurea]
24 | < 2000 | CCCCc1ccc(NC(=O)Nc2ccc(C)cc2)cc1 [Compound 37, N-(4-butylphenyl)-N′-(4-methylphenyl)urea]
25 | < 2000 | Cc1ccc(NC(=O)Nc2cccc(OC(C)C)c2)cc1 [Compound 38, N-(3-isopropoxyphenyl)-N′-(4-methylphenyl)urea]
26 | < 2000 | CCCc1ccc(NC(=O)Nc2ccc(C)cc2)cc1 [Compound 39, N-(4-methylphenyl)-N′-(4-propylphenyl)urea]
27 | < 2000 | CCCOc1ccc(NC(=O)Nc2ccc(C)cc2)cc1 [Compound 40, N-(4-methylphenyl)-N′-(4-propoxyphenyl)urea]
28 | < 2000 | Cc1ccc(NC(=O)Nc2ccc(OC(F)F)cc2)cc1 [Compound 41, N-[4-(difluoromethoxy)phenyl]-N′-(4-methylphenyl)urea]
29 | < 2000 | CCc1ccc(NC(=O)Nc2ccc(C)cc2)cc1 [Compound 42, N-(4-ethylphenyl)-N′-(4-methylphenyl)urea]
30 | < 2000 | Cc1ccc(NC(=O)Nc2ccc(Cl)cc2)cc1 [Compound 43, N-(4-chlorophenyl)-N′-(4-methylphenyl)urea]
31 | < 2000 | CCCOc1ccc(NC(=O)Nc2ccccc2)cc1 [Compound 44, N-phenyl-N′-(4-propoxyphenyl)urea]
32 | < 2000 | CCCc1ccc(NC(=O)Nc2ccccc2)cc1 [Compound 45, N-phenyl-N′-(4-propylphenyl)urea]
33 | < 2000 | CCCCc1ccc(NC(=O)Nc2ccccc2)cc1 [Compound 46, N-(4-butylphenyl)-N′-phenylurea]
34 | < 2000 | CC(C)c1ccc(NC(=O)Nc2ccccc2)cc1 [Compound 47, N-(4-isopropylphenyl)-N′-phenylurea]
35 | < 2000 | O=C(Nc1ccccc1)Nc1ccc(OC(F)F)cc1 [Compound 48, N-[4-(difluoromethoxy)phenyl]-N′-phenylurea]
36 | < 2000 | CC(C)Oc1cccc(NC(=O)Nc2ccccc2)c1 [Compound 49, N-(3-isopropoxyphenyl)-N′-phenylurea]
37 | < 2000 | CCc1ccc(NC(=O)Nc2ccc(OC(F)F)c(OC)c2)cc1 [Compound 53, N-[4-(difluoromethoxy)-3-methoxyphenyl]-N′-(4-ethylphenyl)urea]
38 | < 2000 | COc1cc(NC(=O)Nc2ccc(OC(F)F)c(OC)c2)ccc1OC(F)F [Compound 54, N,N′-bis[4-(difluoromethoxy)-3-methoxyphenyl]urea]
39 | < 2000 | CCc1ccc(NC(=O)Nc2cccc(C#N)c2)cc1 [Compound 55, N-(3-cyanophenyl)-N′-(4-ethylphenyl)urea]
40 | < 2000 | CCc1ccc(NC(=O)Nc2cccc(C(C)=O)c2)cc1 [Compound 56, N-(3-acetylphenyl)-N′-(4-ethylphenyl)urea]
41 | < 2000 | CCc1ccc(NC(=O)Nc2cccc(OC)c2)cc1 [Compound 57, N-(4-ethylphenyl)-N′-(3-methoxyphenyl)urea]
42 | < 2000 | CCc1ccc(NC(=O)Nc2cccc(F)c2)cc1 [Compound 58, N-(4-ethylphenyl)-N′-(3-fluorophenyl)urea]
43 | < 2000 | CCc1ccc(NC(=O)Nc2cccc(C)c2)cc1 [Compound 59, N-(4-ethylphenyl)-N′-(3-methylphenyl)urea]

Same assay, conditions: Table II; IC50 at CB1, GTP binding with 1 nM CP55,940; read-out: IC50

Row | IC50 [nM] | SMILES
44 | < 2000 | COc1cc(NC(=O)Nc2ccc(C)cc2)ccc1OC(F)F [Compound 61, N-[4-(difluoromethoxy)-3-methoxyphenyl]-N′-(4-methylphenyl)urea]
45 | < 2000 | O=C(Nc1ccc(OC(F)F)cc1)Nc1cccc(-c2ccccn2)c1 [Compound 62, N-[4-(difluoromethoxy)phenyl]-N′-(3-pyridin-2-ylphenyl)urea]
